According to PMC4967029 (Drug testing and analysis, 2015):
Where two headings read alike, the source gives them in different places.

Experiments:
[1] = Hair analysis for betel related compounds; type: in vivo, human; conditions: for levels in hair: hair sample from a tobacco consumer
[2] = Stability study of betel alkaloid standards in MeOH, HCl and NaOH at 45°C; type: physicochemical; conditions: 1N NaOH; for fate of the carboxylic acids in basic conditions: after 24 h
[3] = Urine time course of betel biomarkers after betel chewing; conditions: for return to baseline levels in urine (time post-chewing) / time of peak in urine post-chewing: participant 1
[4] = for time of peak in saliva post-chewing: after one serving of betel nut/quid, n=4; for detected in saliva above the limit of detection up to (time after chewing): all participants
[5] = cited from earlier work; for elimination half-life (t1/2): human urine
[6] = after infusion; cited from earlier work

Row | SMILES | return to baseline levels in urine (time post-chewing) [3] | time of peak in urine post-chewing [3] | return to baseline levels in saliva (time post-chewing) ([4]; saliva) [h] | time of peak in saliva post-chewing ([4]; saliva) [h] | detected in saliva above the limit of detection up to (time after chewing) ([4]; saliva) | elimination half-life (t1/2) [5] [h] | further results
1 | CN1CCC[C@H]1c1cccnc1 [nicotine] | – | – | – | – | – | – | levels in hair [1]: high levels
2 | COC(=O)C1=CCCNC1 [guvacoline] | approximately 8 h | approximately 2 h | 8 | ≤ 2 | up to 8 h | – | stability in basic conditions [2]: not stable; time to hydrolysis to the carboxylic acid [2]: up to 1 hour
3 | CN1CCCC(C(=O)O)C1 (stereo not shown) [NMNA, N-methylnipecotic acid] | – | – | – | – | – | 7.9 | detection in urine samples ([3]; LC-MS): failed; detection in saliva samples ([4]; saliva, LC-MS): failed; detection in hair samples ([1]; hair of participants who chewed betel nuts at least once daily for ½-2 h): could not detect; urinary NMNA excretion ([5]; subjects consumed water extracts of areca nuts): 1298 ng/mg creatinine; urinary excretion of NMNA relative to that of arecaidine ([5]; urine): < 25%
4 | CN1C(=O)CC[C@H]1c1cccnc1 [cotinine] | – | – | – | – | – | – | levels in hair [1]: high levels
5 | C=CCc1ccc(OC)c(OC2OC(C(=O)O)C(O)C(O)C2O)c1 (stereo not shown) [chavibetol glucuronide] | approximately 8 h | approximately 2 h | – | – | – | – | –
6 | COC(=O)C1=CCCN(C)C1 [arecoline] | approximately 8 h | approximately 2 h | 8 | ≤ 2 | up to 8 h | 0.97 | stability in basic conditions [2]: not stable; time to hydrolysis to the carboxylic acid [2]: up to 1 hour; disappearance of arecoline from plasma [6]: ≥ 15 min
7 | CN1CCC=C(C(=O)O)C1 [arecaidine] | approximately 8 h | approximately 2 h | 8 | ≤ 2 | up to 8 h | 4.3 | fate of the carboxylic acids in basic conditions [2]: disappeared
8 | C=CCc1ccc(OC)c(O)c1 [chavibetol] | – | – | 2 | 0.5 to 1 | – | – | detection in saliva ([4]; participant 2, who chewed exclusively betel nut): absence; detection in saliva ([4]; participants 1, 3 and 4, who consumed Piper betle leaves in their BQ): detected
9 | O=C(O)C1=CCCNC1 [guvacine] | approximately 8 h | approximately 2 h | 8 | ≤ 2 | up to 8 h | – | fate of the carboxylic acids in basic conditions [2]: disappeared
